Molecular target: FAK kinase (catalytic construct FAK(410-689)) (Homo sapiens (Human), UniProt Q05397)
Assay: FAKcd kinase ELISA (inhibition of poly-glu-tyr phosphorylation by FAK(410-689))
Assay type: biochemical
Details: 50 μM final ATP

FAK kinase (catalytic construct FAK(410-689)), sequence (Q05397 410-689): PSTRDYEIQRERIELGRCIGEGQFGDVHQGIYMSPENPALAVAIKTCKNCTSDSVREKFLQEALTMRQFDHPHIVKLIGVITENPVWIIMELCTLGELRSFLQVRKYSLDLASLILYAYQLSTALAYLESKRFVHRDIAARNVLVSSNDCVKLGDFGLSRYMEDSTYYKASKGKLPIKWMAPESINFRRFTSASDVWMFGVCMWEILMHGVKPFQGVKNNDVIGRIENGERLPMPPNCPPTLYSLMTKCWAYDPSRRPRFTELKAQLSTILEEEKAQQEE

IC50 [nM]	Compound
3.35	CN(c1ncccc1CNc1nc(Nc2cccc(C(=O)N3C[C@@H](F)[C@H](F)C3)c2)ncc1C(F)(F)F)S(C)(=O)=O [Compound 153, N-{3-[({2-[(3-{[(3R,4R)-3,4-difluoropyrrolidin-1-yl]carbonyl}phenyl)amino)-5-(trifluoromethyl)pyrimidin-4-yl}amino)methyl]pyridin-2-yl}-N-methylmethane-sulfonamide]
9.75	CC1CCCN1C(=O)c1cccc(Nc2ncc(C(F)(F)F)c(NCc3cccnc3N(C)S(C)(=O)=O)n2)c1 (stereo not shown) [Compound 155, N-methyl-N-[3-({[2-({3-[(2-methylpyrrolidin-1-yl)carbonyl]phenyl}amino)-5-(trifluoromethyl)pyrimidin-4-yl]amino}methyl)pyridin-2-yl]methanesulfonamide]
4.24	CN(c1ncccc1CNc1nc(Nc2cccc(C(=O)N3CC[C@H](O)C3)c2)ncc1C(F)(F)F)S(C)(=O)=O [Compound 157, N-{3-[({2-[(3-{[(3S)-3-hydroxypyrrolidin-1-yl]carbonyl}phenyl)amino]-5-(trifluoromethyl)pyrimidin-4-yl}amino)methyl]pyridin-2-yl}-N-methylmethane-sulfonamide]
6.14	CN(c1ncccc1CNc1nc(Nc2cccc(C(=O)N3CCC[C@H](O)C3)c2)ncc1C(F)(F)F)S(C)(=O)=O [Compound 159, N-{3-[({2-[(3-{[(3S)-3-hydroxypiperidin-1-yl]carbonyl}phenyl)amino]-5-(trifluoromethyl)pyrimidin-4-yl}amino)methyl]pyridin-2-yl}-N-methylmethane-sulfonamide]
3.74	CC(C)[C@H](CO)NC(=O)c1cccc(Nc2ncc(C(F)(F)F)c(NCc3cccnc3N(C)S(C)(=O)=O)n2)c1 [Compound 161, N-[(1R)-1-(hydroxymethyl)-2-methylpropyl]-3-({4-(({2-[methyl(methylsulfonyl)amino]pyridin-3-yl}methyl)amino]-5-(trifluoromethyl)pyrimidin-2-yl}amino)benzamide]
5.1	CN(c1ncccc1CNc1nc(Nc2cccc(C(=O)NC3CCCC3)c2)ncc1C(F)(F)F)S(C)(=O)=O [Compound 163, N-cyclopentyl-3-({4-[({2-[methyl(methylsulfonyl)amino]pyridin-3-yl}methyl)amino]-5-(trifluoromethyl)pyrimidin-2-yl}amino)benzamide]
4.93	CN(C)C1CN(C(=O)c2cccc(Nc3ncc(C(F)(F)F)c(NCc4cccnc4N(C)S(C)(=O)=O)n3)c2)C1 [Compound 165, N-{3-[({2-[(3-{[3-(dimethylamino)azetidin-1-yl]carbonyl}phenyl)amino]-5-(trifluoromethyl)pyrimidin-4-yl}amino)methyl]pyridin-2-yl}-N-rnethylmethane-sulfonamide]
3.44	CC(=O)NCCNC(=O)c1cccc(Nc2ncc(C(F)(F)F)c(NCc3cccnc3N(C)S(C)(=O)=O)n2)c1 [Compound 167, N-[2-(acetylamino)ethyl]-3-({4-[({2-[methyl(methylsulfonyl)amino]pyridin-3-yl}methyl)amino]-5-(trifluoromethyl)pyrimidin-2-yl}amino)benzamide]
2.47	CC[C@H](CO)NC(=O)c1cccc(Nc2ncc(C(F)(F)F)c(NCc3cccnc3N(C)S(C)(=O)=O)n2)c1 [Compound 169, N-[(1R)-1-(hydroxymethyl)propyl]-3-({4-(({2-[methyl(methylsulfonyl)amino]pyridin-3-yl}methyl)amino]-5-(trifluoromethyl)pyrimidin-2-yl}amino)benzamide]
7.91	CN(c1ncccc1CNc1nc(Nc2cccc(C(=O)N3CCCCC3)c2)ncc1C(F)(F)F)S(C)(=O)=O [Compound 171, N-methyl-N-[3-({[2-{[3-(piperidin-1-ylcarbonyl)phenyl]amino}-5-(trifluoromethyl)pyrimidin-4-yl]amino}methyl)pyridin-2-yl]methanesulfonamide]

Source: patent US10450297B2, “Sulfonyl amide derivatives for the treatment of abnormal cell growth” (Pfizer, Inc., priority 2007, dated 2019)
